Results as given in PubChem BioAssay AID248 (DTP/NCI, 2004).
Values joined by “and” are separate entries in the source; they are usually repeats but may differ in a detail not shown here. Identical values can stand only once. Toxic doses and inconclusive results are not listed. No stated cut-off is given here; in the data, active means T/C of 150% or more; inactive means T/C below 125%.

System: L1210 leukemia ip in BDF1 mice, survival T/C
Test: NCI In Vivo Anticancer Drug Screen. Data for tumor model L1210 Leukemia (intraperitoneal) in B6D2F1 (BDF1) mice
Conditions: endpoint: mean survival time, higher = longer survival
Summary of the method: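 Tumor cells were implanted, animals were treated, and survival was followed. The result divides the treated measurement by the vehicle-control measurement.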

[1] = dose: 100.0 mg/kg/injection, schedule: Q01DX001 (ip), vehicle: saline
[2] = dose: 200.0 mg/kg/injection, schedule: Q01DX001 (ip), vehicle: saline
[3] = dose: 50.0 mg/kg/injection, schedule: Q01DX001 (ip), vehicle: carboxymethylcellulose (CMC)
[4] = dose: 100.0 mg/kg/injection, schedule: Q01DX001 (ip), vehicle: carboxymethylcellulose (CMC)
[5] = dose: 100.0 mg/kg/injection, schedule: Q04DX003 (ip), vehicle: saline with Tween-80
[6] = dose: 200.0 mg/kg/injection, schedule: Q04DX003 (ip), vehicle: saline with Tween-80
[7] = dose: 400.0 mg/kg/injection, schedule: Q04DX003 (ip), vehicle: saline with Tween-80
[8] = dose: 100.0 mg/kg/injection, schedule: Q04DX003 (ip), vehicle: Klucel (hydroxypropylcellulose) (HPC)
[9] = dose: 200.0 mg/kg/injection, schedule: Q04DX003 (ip), vehicle: Klucel (hydroxypropylcellulose) (HPC)
[10] = dose: 400.0 mg/kg/injection, schedule: Q04DX003 (ip), vehicle: Klucel (hydroxypropylcellulose) (HPC)
[11] = dose: 100.0 mg/kg/injection, schedule: Q04DX003 (ip), vehicle: saline

Measured: T/C

NC(=O)C1C(=O)OC2(CC2)C1c1ccccc1 (centres undefined)
inactive: [1] 86 % of control | [2] 93 % of control

O=C(NCCNC(=O)c1cccnc1)c1ccncc1
inactive: dose: 100.0 mg/kg/injection, schedule: Q04DX003 (ip), vehicle: acetone 95 % of control | dose: 200.0 mg/kg/injection, schedule: Q04DX003 (ip), vehicle: acetone 105 % of control | dose: 400.0 mg/kg/injection, schedule: Q04DX003 (ip), vehicle: acetone 106 % of control

O=C(O)/C(F)=C/c1ccccc1
inactive: [3] 111 % of control | [4] 103 % of control

O=C(O)/C=C\c1cccc([N+](=O)[O-])c1
inactive: [5] 92 % of control | [6] 93 % of control | [7] 92 % of control

Clc1nc(Br)[nH]c1Cl
inactive: dose: 1.56 mg/kg/injection, schedule: Q01DX009 (ip), vehicle: Klucel (hydroxypropylcellulose) (HPC) 100 % of control | dose: 3.12 mg/kg/injection, schedule: Q01DX009 (ip), vehicle: Klucel (hydroxypropylcellulose) (HPC) 107 % of control | dose: 6.25 mg/kg/injection, schedule: Q01DX009 (ip), vehicle: Klucel (hydroxypropylcellulose) (HPC) 100 % of control and 113 % of control

COC(=O)C(CCC(=O)O)NC(=O)C(F)(F)F (centres undefined)
inactive: dose: 100.0 mg/kg/injection, schedule: Q01DX001 (ip), vehicle: Klucel (hydroxypropylcellulose) (HPC) 89 % of control | dose: 200.0 mg/kg/injection, schedule: Q01DX001 (ip), vehicle: Klucel (hydroxypropylcellulose) (HPC) 97 % of control | dose: 400.0 mg/kg/injection, schedule: Q01DX001 (ip), vehicle: Klucel (hydroxypropylcellulose) (HPC) 89 % of control

O=C1c2cc(-c3ccccc3)ccc2C(c2ccccc2)C1NC1CCCCC1 (centres undefined)
inactive: dose: 37.5 mg/kg/injection, schedule: Q01DX001 (ip), vehicle: Klucel (hydroxypropylcellulose) (HPC) 89 % of control | dose: 75.0 mg/kg/injection, schedule: Q01DX001 (ip), vehicle: Klucel (hydroxypropylcellulose) (HPC) 89 % of control | dose: 150.0 mg/kg/injection, schedule: Q01DX001 (ip), vehicle: Klucel (hydroxypropylcellulose) (HPC) 89 % of control

COc1ccc(C(C#N)N2CCCC2)cc1 (centres undefined)
inactive: dose: 6.25 mg/kg/injection, schedule: Q01DX009 (ip), vehicle: other 95 % of control | dose: 6.25 mg/kg/injection, schedule: Q04DX003 (ip), vehicle: other 98 % of control | dose: 12.5 mg/kg/injection, schedule: Q01DX009 (ip), vehicle: other 95 % of control | dose: 12.5 mg/kg/injection, schedule: Q04DX003 (ip), vehicle: other 104 % of control | dose: 25.0 mg/kg/injection, schedule: Q04DX003 (ip), vehicle: other 96 % of control

CC1CC(N2CSC(=S)N(C3CC(C)CC(C)(C)C3)C2)CC(C)(C)C1 (centres undefined)
inactive: dose: 25.0 mg/kg/injection, schedule: Q01DX009 (ip), vehicle: Klucel (hydroxypropylcellulose) (HPC) 93 % of control | dose: 100.0 mg/kg/injection, schedule: Q01DX009 (ip), vehicle: Klucel (hydroxypropylcellulose) (HPC) 86 % of control and 90 % of control | [8] 89 % of control | [9] 94 % of control | [10] 91 % of control

COc1ccc(-c2nnc(Cl)o2)cc1
inactive: [11] 94 % of control

O=C(OCc1ccccc1)Oc1ccc2ccccc2c1
inactive: [8] 102 % of control | [9] 95 % of control | [10] 95 % of control

CN(C(=O)c1n[nH]c2ccccc12)c1ccccc1
inactive: dose: 50.0 mg/kg/injection, schedule: Q04DX002 (ip), vehicle: Klucel (hydroxypropylcellulose) (HPC) 101 % of control | dose: 100.0 mg/kg/injection, schedule: Q04DX002 (ip), vehicle: Klucel (hydroxypropylcellulose) (HPC) 108 % of control | dose: 200.0 mg/kg/injection, schedule: Q04DX002 (ip), vehicle: Klucel (hydroxypropylcellulose) (HPC) 101 % of control

COc1ccc(CCNC(=O)c2ccc(Cl)c(Cl)c2)cc1OC
inactive: dose: 25.0 mg/kg/injection, schedule: Q04DX002 (ip), vehicle: saline with Tween-80 100 % of control | dose: 50.0 mg/kg/injection, schedule: Q04DX002 (ip), vehicle: saline with Tween-80 96 % of control | dose: 100.0 mg/kg/injection, schedule: Q04DX002 (ip), vehicle: saline with Tween-80 106 % of control and 107 % of control

CCN1/C(=C/C=C/c2oc3ccccc3[n+]2CC)Oc2ccccc21
inactive: dose: 0.05 mg/kg/injection, schedule: Q04DX003 (ip), vehicle: Klucel (hydroxypropylcellulose) (HPC) 102 % of control | dose: 0.1 mg/kg/injection, schedule: Q04DX003 (ip), vehicle: Klucel (hydroxypropylcellulose) (HPC) 100 % of control | dose: 0.2 mg/kg/injection, schedule: Q01DX009 (ip), vehicle: saline 104 % of control | dose: 0.2 mg/kg/injection, schedule: Q04DX003 (ip), vehicle: Klucel (hydroxypropylcellulose) (HPC) 98 % of control | dose: 0.2 mg/kg/injection, schedule: Q04DX003 (ip), vehicle: saline 112 % of control | dose: 0.4 mg/kg/injection, schedule: Q01DX009 (ip), vehicle: saline 109 % of control | dose: 0.4 mg/kg/injection, schedule: Q04DX003 (ip), vehicle: Klucel (hydroxypropylcellulose) (HPC) 104 % of control | dose: 0.4 mg/kg/injection, schedule: Q04DX003 (ip), vehicle: saline 94 % of control | dose: 0.5 mg/kg/injection, schedule: Q01DX001 (ip), vehicle: saline 108 % of control | dose: 0.8 mg/kg/injection, schedule: Q01DX009 (ip), vehicle: saline 114 % of control | dose: 0.8 mg/kg/injection, schedule: Q04DX003 (ip), vehicle: saline 100 % of control | dose: 1.0 mg/kg/injection, schedule: Q01DX001 (ip), vehicle: saline 100 % of control | dose: 1.6 mg/kg/injection, schedule: Q04DX003 (ip), vehicle: saline 107 % of control | dose: 37.5 micrograms/kg/injection, schedule: Q01DX009 (ip), vehicle: Klucel (hydroxypropylcellulose) (HPC) 108 % of control | dose: 75.0 micrograms/kg/injection, schedule: Q01DX009 (ip), vehicle: Klucel (hydroxypropylcellulose) (HPC) 98 % of control | dose: 150.0 micrograms/kg/injection, schedule: Q01DX009 (ip), vehicle: Klucel (hydroxypropylcellulose) (HPC) 107 % of control | dose: 300.0 micrograms/kg/injection, schedule: Q01DX009 (ip), vehicle: Klucel (hydroxypropylcellulose) (HPC) 113 % of control

Cc1ccc(NC(=O)NCCCO)cc1
inactive: [3] 101 % of control | [4] 101 % of control | dose: 200.0 mg/kg/injection, schedule: Q01DX001 (ip), vehicle: carboxymethylcellulose (CMC) 106 % of control | dose: 400.0 mg/kg/injection, schedule: Q01DX001 (ip), vehicle: carboxymethylcellulose (CMC) 104 % of control

Cc1cc(C)c2ccc(NC(=O)CCC(=O)O)nc2n1
inactive: [1] 95 % of control

Nc1nc(C=O)c(Cc2ccc3ccccc3c2)c(=O)[nH]1
inactive: [5] 100 % of control | [6] 108 % of control | [7] 110 % of control

CC1(C)OC2COC(c3[nH]nc(C(N)=O)c3Br)C2O1 (centres undefined)
inactive: dose: 100.0 mg/kg/injection, schedule: Q01DX005 (ip), vehicle: saline 104 % of control | dose: 200.0 mg/kg/injection, schedule: Q01DX005 (ip), vehicle: saline 96 % of control

[Br][Ga]([Br])[Br]
inactive: [1] 100 % of control | [2] 101 % of control | dose: 400.0 mg/kg/injection, schedule: Q01DX001 (ip), vehicle: saline 103 % of control

CC[N+](C)(CC)CCCOC(=O)c1ccccc1Oc1ccc(C)cc1
inactive: [11] 104 % of control | dose: 200.0 mg/kg/injection, schedule: Q04DX003 (ip), vehicle: saline 93 % of control

CC(C)N=Cc1ccccc1O.CC(C)N=Cc1ccccc1O.[Co]
inactive: dose: 100.0 mg/kg/injection, schedule: Q01DX009 (ip), vehicle: saline sonified 108 % of control | [8] 103 % of control | dose: 200.0 mg/kg/injection, schedule: Q01DX009 (ip), vehicle: saline sonified 100 % of control | [9] 99 % of control | [10] 100 % of control

CC(C)(C)C(Br)CBr (centres undefined)
inactive: dose: 50.0 mg/kg/injection, schedule: Q01DX009 (ip), vehicle: saline with Tween-80 101 % of control | dose: 100.0 mg/kg/injection, schedule: Q01DX009 (ip), vehicle: saline with Tween-80 101 % of control | dose: 200.0 mg/kg/injection, schedule: Q01DX009 (ip), vehicle: saline with Tween-80 97 % of control
